Laboratory results from PubChem BioAssay AID256 (DTP/NCI, 2004).
Values joined by “and” are separate entries in the source; they are usually repeats but may differ in a detail not shown here. Equal entries are not always repeated. Inconclusive results and toxic doses are left out. The calls were made as follows: active = survival T/C of 150% or more; inactive = T/C below 125% in these data.

System: CD2F1 mice, L1210 leukemia ip, survival T/C
Assay: NCI In Vivo Anticancer Drug Screen. Data for tumor model L1210 Leukemia (intraperitoneal) in CD2F1 (CDF1) mice
Details: endpoint: mean survival time, higher = longer survival
Method in brief: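 Compound-dosed mice with transplantable tumor versus matched vehicle controls; endpoint ratio T/C reported.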

[1] = dose: 100.0 mg/kg/injection, schedule: Q04DX003 (ip), vehicle: saline with Tween-80
[2] = dose: 200.0 mg/kg/injection, schedule: Q04DX003 (ip), vehicle: saline with Tween-80
[3] = dose: 400.0 mg/kg/injection, schedule: Q04DX003 (ip), vehicle: saline with Tween-80
[4] = dose: 100.0 mg/kg/injection, schedule: Q01DX009 (ip), vehicle: saline with Tween-80
[5] = dose: 200.0 mg/kg/injection, schedule: Q01DX009 (ip), vehicle: saline with Tween-80
[6] = dose: 400.0 mg/kg/injection, schedule: Q01DX009 (ip), vehicle: saline with Tween-80
[7] = dose: 50.0 mg/kg/injection, schedule: Q01DX009 (ip), vehicle: saline with Tween-80
[8] = dose: 100.0 mg/kg/injection, schedule: Q04DX002 (ip), vehicle: saline with Tween-80
[9] = dose: 200.0 mg/kg/injection, schedule: Q04DX002 (ip), vehicle: saline with Tween-80
[10] = dose: 400.0 mg/kg/injection, schedule: Q04DX002 (ip), vehicle: saline with Tween-80

Measured: T/C

CC(Br)C(=O)c1ccc2ncccc2c1 (stereo not given)
inactive: dose: 12.5 mg/kg/injection, schedule: Q04DX002 (ip), vehicle: saline + alcohol 98 % of control | dose: 25.0 mg/kg/injection, schedule: Q04DX002 (ip), vehicle: saline + alcohol 101 % of control | dose: 50.0 mg/kg/injection, schedule: Q04DX002 (ip), vehicle: saline + alcohol 95 % of control

Cc1cc(C)c2nc(-c3ccc(Cl)cc3)cc(C(=O)O)c2c1
inactive: dose: 100.0 mg/kg/injection, schedule: Q01DX001 (ip), vehicle: saline 96 % of control | dose: 100.0 mg/kg/injection, schedule: Q04DX002 (ip), vehicle: Klucel (hydroxypropylcellulose) (HPC) 94 % of control | dose: 200.0 mg/kg/injection, schedule: Q04DX002 (ip), vehicle: Klucel (hydroxypropylcellulose) (HPC) 94 % of control

c1ccc(CCc2nc3ccccc3o2)cc1
inactive: [1] 98 % of control | [2] 102 % of control | [3] 93 % of control

N/N=C(/C(=O)c1ccccc1)c1ccccc1
inactive: [4] 95 % of control | [5] 97 % of control | [6] 95 % of control

NC(=O)N/N=C/c1cccs1
inactive: [7] 89 % of control | [5] 97 % of control | [2] 87 % of control | [3] 91 % of control

C(=N\N(c1ccccc1)c1ccccc1)/c1ccc(/C=N/N(c2ccccc2)c2ccccc2)cc1
inactive: dose: 100.0 mg/kg/injection, schedule: Q04DX003 (ip), vehicle: Klucel (hydroxypropylcellulose) (HPC) 97 % of control | dose: 200.0 mg/kg/injection, schedule: Q04DX003 (ip), vehicle: Klucel (hydroxypropylcellulose) (HPC) 95 % of control | dose: 400.0 mg/kg/injection, schedule: Q04DX003 (ip), vehicle: Klucel (hydroxypropylcellulose) (HPC) 95 % of control

O=C(O)c1cccc2c1oc1ccccc12
inactive: [8] 94 % of control | [9] 94 % of control | [10] 102 % of control

CC(=O)Oc1ccc2c3c(ccc2c1)CCCC3
inactive: dose: 25.0 mg/kg/injection, schedule: Q01DX009 (ip), vehicle: Klucel (hydroxypropylcellulose) (HPC) 116 % of control | dose: 50.0 mg/kg/injection, schedule: Q01DX009 (ip), vehicle: Klucel (hydroxypropylcellulose) (HPC) 93 % of control | dose: 100.0 mg/kg/injection, schedule: Q01DX009 (ip), vehicle: Klucel (hydroxypropylcellulose) (HPC) 104 % of control

CCOC(=O)c1c2c3c(c(Br)ccc3n(C)c1=O)C(=O)c1ccccc1-2
inactive: dose: 12.5 mg/kg/injection, schedule: Q01DX009 (ip), vehicle: saline with Tween-80 98 % of control | dose: 25.0 mg/kg/injection, schedule: Q01DX009 (ip), vehicle: saline with Tween-80 96 % of control | [7] 98 % of control

COc1ccc(N2CSC(=S)N(c3ccc(OC)cc3)C2)cc1
inactive: dose: 100.0 mg/kg/injection, schedule: Q04DX003 (ip), vehicle: other 94 % of control

CN(C)/C=C/C#N
inactive: dose: 75.0 mg/kg/injection, schedule: Q01DX001 (ip), vehicle: saline 102 % of control

CC(CCOP(=O)(N(CCCl)CCCl)N1CC1)OCc1ccccc1 (stereo not given)
active: dose: 50.0 mg/kg/injection, schedule: Q01DX001 (ip), vehicle: other 153 % of control
inactive: dose: 22.0 mg/kg/injection, schedule: Q01DX001 (ip), vehicle: other 108 % of control | dose: 33.0 mg/kg/injection, schedule: Q01DX001 (ip), vehicle: other 111 % of control

CCCn1c(O)c(C=N)c(=O)n(CCC)c1=O
inactive: [4] 98 % of control | [1] 96 % of control | [5] 101 % of control | [2] 97 % of control | [6] 101 % of control | [3] 100 % of control

Nc1nc2c(ncn2-c2ccc3oc4ccccc4c3c2)c(=O)[nH]1
inactive: dose: 100.0 mg/kg/injection, schedule: Q01DX001 (ip), vehicle: saline with Tween-80 93 % of control and 108 % of control | [8] 101 % of control | dose: 200.0 mg/kg/injection, schedule: Q01DX001 (ip), vehicle: saline with Tween-80 89 % of control and 97 % of control | [9] 97 % of control | dose: 400.0 mg/kg/injection, schedule: Q01DX001 (ip), vehicle: saline with Tween-80 89 % of control and 101 % of control | [10] 108 % of control
